The subject of experiment [1] is HLE cells. The experiment is described as follows: Cell cycle analysis (PI flow cytometry). Format: cell-based, human. Conditions: 72 h; for cells in the S phase: at respective IC-50, control 24%; for cells in the G2/M phase: at respective IC-50, control 30%; for cells in the G1 phase: at respective IC-50, control 50%. As for the experimental part: FIG. 37. IMSs arrest Hepatocarcinoma cells. Cells were treated with vehicle and IBN 15, IBN 19, IBN 24, IBN 25 and IBN 32 for 72 h, and cell cycle distribution was assessed by flow cytometry. A) Example FACS profiles of propidium iodide-stained control cells, and cells treated with IMSs respectively. B) % of cells in cell cycle phase C) % of cells in subG0 population. Each value is the mean±S.D. of three determinations.
To perform cell cycle distribution analysis, 4×10^5 cells were plated in 10 cm dish. The cells (70% confluence) were serum-starved for 24 h to synchronize them in the G0 phase of the cell cycle. After 24 h incubation, the cells were replaced with fresh 10% DMEM medium and then treated 60 μM of IBN-15, 90 μM of IBN-19, 90 μM of IBN-24, 30 μM of […] and 20 μM of IBN-32) and 0.045% DMSO as control for 72 h. The floating and trypsinized adherent cells were collected and washed with PBS. The cell pellets were resuspended in 1 ml of PBS and fixed by the addition of 70% ice-cold ethanol and stored at −20° C. After incubation for 24 hr, the cells were re-pelleted by centrifugation, the cells were washed once with PBS and resuspended in 0.1 mL of PBS containing 100 μg/ml of RNase and then incubated at 37° C. for 15 min. Finally, the cells were stained with 0.5 ml of PI solution (100 μg/mL in PBS) for 30 min. Cell cycle distribution was detected by a BD FACS array flow cytometer (Becton Dickinson). Cells with sub-G0 DNA were classified as apoptotic cells.

Experiment [2] has as its system HLE cells. The experiment in a line: Apoptosis assay (Annexin V-FITC/PI flow cytometry). The class given is cell-based, human. Conditions: 72 h, IBN-15 60 μM, IBN-19 90 μM, IBN-24 90 μM, IBN-25 30 μM, IBN-32 20 μM, DMSO 0.045%. How it is done:
FIG. 36. IMSs induce apoptosis in Hepatocarcinoma cells. A) Cells were treated with vehicle and IBN 15, IBN 19, IBM 24, IBN 25 and IBN 32 for 72 h, and apoptosis was quantified using Annexin V-FITC/PI staining followed by flow cytometric analysis. 10,000 cells were detected for every sample. Living cells are in the bottom left quadrants (FITC− and PI−), early apoptotic cells in the bottom right quadrants (FITC+ and PI−), and late apoptotic cells in the upper right quadrants (apoptotic FITC+ and PI+). B) The percentage of apoptotic cells with respect to different IMSs.
To determine apoptosis analysis, 4×10^5 cells were plated in 10 cm dish. […] The floating and trypsinized adherent cells were collected and the apoptosis was quantified using Annexin V-FITC reagent (BD Biosciences Pharmingen) and PI (Invitrogen) following the manufacturer's protocol. Briefly, the cells were washed twice with cold PBS and then resuspend cell in 100 μl of × binding buffer containing a 10 μl of Annexin V-FITC (BD-Pharminagen) and 2 μl of PI from the stock of 100 μg/ml. The cells were gently vortexed and incubated for 15 min at room temperature in the dark. Subsequently 400 μl of 1× binding buffer were added to each tube, and the samples were immediately analyzed by FACScan flow cytometer (Becton Dickinson). The fluorescent signals of the Annexin-V conjugate and PI were detected at channels of fluorescence intensity FL1 and FL2 (BD LSR II with software BD).
Cells undergoing apoptosis would stain positive for Annexin and negative for PI (quadrant 4, Q4). Cells which stained positive for both Annexin V-FITC and PI (Q2) are either at the end stage of apoptosis or undergoing necrosis, and those which stained negative for both Annexin V-FITC and PI (Q3) were alive or undergoing undetectable apoptosis. In contrast, cell debris stained only for PI (Q1).

In experiment [3] the test system is HLE cells. The experiment in a line: Growth inhibition assay (MTT), HLE. Format: cell-based, human. Conditions: Homo sapiens. As for the experimental part:
The effect of IMSs (IBN-15, IBN-19, IBN-24, IBN-25 and IBN-32) on the proliferative properties of p53 mutant cell line HLE was examined. The cytotoxicity activity and proliferation inhibition of IMSs in tumor cells were measured by MTT. […] The control experiments with DMSO alone (0.05% v/v) had no effect on cell proliferation. […] (Table 4) Microscopic observation on the cell cultures visually confirmed the inhibition on cell proliferation by IMSs. (FIG. 35)

The subject of another experiment is SOD. The experiment is described as follows: Superoxide dismutase (SOD) activity assay in treated cells. The class given is cell-based, rat. Conditions: HSC T6 cells, 48 h. How it is done:
(§1) FIG. 4. Effect of DBZIM and TDBZIM on GPx, CAT, SOD and GST. DBZIM affected (a) GPx activity and (c) CAT activity in a dosage-dependent manner. TDBZIM suppressed (b) GPx activity and (d) CAT activity. (e) DBZIM and (f) TDBZIM had little effect on SOD activity. (g) DBZIM induced GST activity. HSC T6 cells were treated with compounds of various concentrations for 48 h, and homogenized by sonication (60% frequency for 30 s) in PBS (pH 7.4, 1 mM of EDTA) for GPx, GST and CAT assays, or in 20 mM of HEPES buffer containing 1 mM of EGTA, 210 mM of mannitol and 70 mM of sucrose (pH 7.2) for SOD assay. Enzyme activity was normalized against total protein. DBZIM was dissolved in DMSO, and TDBZIM was dissolved in H2O. The data were presented as mean and SEM, N=6, *^aP<0.05, *^bP<0.01, *^cP<0.005, and *^dP<0.0005, when compared to the vehicle control.
(§2) Activity levels of three anti-oxidant enzymes, GPx, CAT and SOD, were determined using assay kits from Cayman Chemical. To assay GPx and CAT activities, protein samples were harvested in ice-cold PBS containing 1 mM of EDTA. To assay SOD activity, protein samples were prepared in 20 mM of N-(2-hydroxyethyl)-piperazine-N′-2-ethanesulfonic acid (HEPES) buffer containing 1 mM of ethylene glycol-bis(2-aminoethylether)-N,N,N′,N′-tetraacetic acid (EGTA), 210 mM of mannitol and 70 mM of sucrose. Protein content was determined by BCA assay.
Total SOD, including all three types of SOD (Cu/Zn-, Mn- and Fe-SOD), was quantified using a tetrazolium salt to detect superoxide radicals generated by xanthine oxidase and hyposanthine. […] SOD activity was expressed as U/mg protein.

The test system of experiment [4] is HSC-T6 cells. The experiment is described as follows: Glutathione (GSH) and GSSG assays. The class given is cell-based, rat. Conditions: EGCG 25 μM, NAC 5 mM, 48 h. As for the experimental part: FIG. 3. […] (c) DBZIM and (d) TDBZIM both suppressed cellular GSSG (the oxidation product of GSH). (e) DBZIM and (f) TDBZIM both enhanced the GSH/GSSG ratio. HSC-T6 cells were incubated with compounds of various concentrations for 48 h, and assayed for the total GSH and GSSG amounts. The GSH/GSSG ratio was calculated as (GSH−GSSG)/GSSG. The GSH and GSSG amounts were normalized against the total protein. Note that DBZIM was dissolved in DMSO, and TDBZIM was dissolved in H2O. The data were presented as mean and SEM, N=6, *^aP<0.05, *^bP<0.01, *^cP<0.005, and *^dP<0.0005, when compared to the vehicle control.
Total cellular GSH and GSSG levels were determined by using assay kits from Cayman Chemical (Ann Arbor, Mich., USA) following the manufacturer's instructions. Briefly, HSC-T6 cells treated with DBZIM, TDBZIM, NAC, or EGCG were scalped and homogenized in phosphate buffered saline (PBS) by sonication at 60% frequency for 30 s, and the supernatant was collected after centrifugation at 16,000×g for 10 min at 4° C. Protein content of the samples was determined by bicinchonicic acid (BCA) assay.
For GSH assays, the protein sample was deproteinated by metaphosphoric acid (Aldrich, Catalog No. 23927-5), and the pH was adjusted by triethanolamine (Aldrich, Catalog No. T5830-0) according to the manual. The sample was ready for assaying total GSH including both the reduced and oxidized forms. Quantification of GSSG, exclusive of GSH, was performed by first derivatizing GSH with 2-vinylpyridine and assaying separately. Colorimetric signal was recorded at 405 nm with a Tecan Safire II plate reader. The levels of GSH or GSSG were determined as nmol/μg protein.

Experiment [5] deals with HSC-T6 cells. The experiment in a line: Cellular ROS determination (DCF labeling). The class given is cell-based, rat. Conditions: EGCG 25 μM, NAC 1 mM, 48 h. How it is done:
FIG. 2. (a) DBZIM and (b) TDBZIM attenuated cellular ROS level. HSC T6 cells were incubated with DBZIM (10, 50, 100 and 300 μM), TDBZIM (10, 50 and 100 μM), NAC (1 mM) and EGCG (25 μM) for 48 h before assaying for cellular ROS levels. The data were presented as relative values after normalizing against a vehicle control. The data were presented as mean and SEM, N=6, *^bP<0.01, *^cP<0.005, and *^dP<0.0005 when compared to the vehicle, control.
The ROS level of treated HSC-T6 cells was determined using the dichlorofluorescein (DCF) labeling method (Molecular Probes Inc., OR, USA). Cultured cells were harvested by trypsinization, and resuspended in phenol red-free DMEM (Invitrogen). Cells were then incubated with 10 μg/ml of 2′,7′-dichloro-fluorescein diacetate (DCFH-DA) in DMEM for 15 min before resuspension in DMEM for assaying. Cell solution was dispensed into a black-wall 96-well pate in triplicate for fluorescence readout at Ex=485 nm and Em=530 nm with a Tecan Safire II plate reader. The fluorescence unit was normalized against viable cell numbers, which were determined using 3-(4,5-dimethylthiazol-2-yl)-2,5-diphenyl tetrazolium bromide (MTT assay, Promega, Wis., USA). Cellular ROS level was expressed relative to the control sample.

In the next experiment the test system is GPx. The experiment is described as follows: Glutathione peroxidase (GPx) activity assay in treated cells. Format: cell-based, rat. Conditions: EGCG 25 μM, NAC 5 mM. As for the experimental part: as §1, §2
GPx activity was indirectly measured by a coupled reaction with GSH reductase. Oxidized GSH, produced upon reduction of H2O2 by GPx, is recycled to its reduced state by glutathione reductase (GR) and nicotinamide adenine dinucleotide phosphate (NADPH). The oxidation of NAPDH is proportional to the GPx activity, and can be measured as a decrease in absorbance at 340 nm. GPx activity was expressed as nmol/min/mg protein.

For a further experiment, the system named is GST. The experiment in a line: Glutathione S-transferase (GST) assay in treated cells. The class given is cell-based, rat. Conditions: EGCG, NAC. How it is done:
as §1
The activity of phase II anti-oxidant enzyme, GST, was assayed using a kit from Cayman Chemical. Protein samples were harvested in PBS buffer containing 1 mM of EDTA, and the protein concentration was determined by BCA assay. Total GST (cytosolic and microsomal) activity was assayed by measuring the conjugation of 1-chloro-2,4-dinitobenzene (CDNB) with reduced GSH, and monitored by an increase in absorbance at 340 nm. GST activity was expressed as nmol/min/mg protein.

In the next experiment the test system is CAT. The experiment in a line: Catalase (CAT) activity assay in treated cells. Conditions: EGCG, NAC (FIG. 4c). Format: cell-based, rat. How it is done:
FIG. 4. […] Enzyme activity was normalized against total protein. DBZIM was dissolved in DMSO, and TDBZIM was dissolved in H2O. The data were presented as mean and SEM, N=6, *^aP<0.05, *^bP<0.01, *^cP<0.005, and *^dP<0.0005, when compared to the vehicle control.
Activity levels of three anti-oxidant enzymes, GPx, CAT and SOD, were determined using assay kits from Cayman Chemical. To assay GPx and CAT activities, protein samples were harvested in ice-cold PBS containing 1 mM of EDTA. […] Protein content was determined by BCA assay.
CAT activity was determined based on reaction of the enzyme with methanol in the presence of H2O2. The formaldehyde produced was measured spectrophotometrically at 540 nm using Purpald as the chromogen. CAT activity was expressed as nmol/min/mg protein.

For the compound `[Br-].c1ccc(CCn2cc[n+](CCc3ccccc3)c2)cc1` [IBN-32, 1,3-di(2-phenylethyl)-imidazolium bromide], in the experiment on HLE cells [1], the “cells in the S phase” value is 14.6%, the “cells in the G2/M phase” value is listed as 18.9% and the “cells in the G1 phase” value turned out to be 32.3%. In addition, in the experiment on HLE cells [2], the “cell apoptosis (Q2)” value came out at 18%. The compound further returned an IC50 with HLE cells [3] (72 h) of 20 µM. In addition, the IC50 in the experiment on HLE cells [3] (120 h) stood at 20 µM.

For `[Br-].c1ccc(Cn2c[n+](Cc3ccccc3)cc2-c2ccccc2)cc1` [IBN-15, 1,3-Dibenzyl-5-phenylimidazolium bromide], in the experiment with HLE cells [1], the “cells in the S phase” value was 19.7%, the “cells in the G2/M phase” value is listed as 21% and the “cells in the G1 phase” value came out at 42%. Besides, in the experiment on HLE cells [2], the “cell apoptosis (Q2)” value is recorded as 33%. The midpoint of inhibition with HLE cells [3] (72 h), the IC50, lay at 60 µM. Besides, in the experiment with HLE cells [3] (120 h), the IC50 was determined as 20 µM.

On to `CC(=O)N[C@@H](CS)C(=O)O` [NAC, N-acetyl-L-cysteine, reference compound], for which the “effect on SOD activity” value with SOD is listed as “did not show much effect”. In addition, in the experiment on HSC-T6 cells [4], the “reduction of GSSG (references)” value is recorded as “had no effect”, the “increase in GSH/GSSG ratio (references)” value was “no change” and the “induction of total GSH (references)” value is “did not show any effect”. Also, the “attenuation of cellular ROS level (references)” value with HSC-T6 cells [5] is “did not show apparent inhibition”. Moreover, the “attenuation of GPx activity (references)” value with GPx was “did not show much effect”. The “effect on GST activity (references)” value in the experiment on GST is given as “did not have much affect”. The “suppression of CAT activity (references)” value in the experiment on CAT is 35%.

The record behind these values is patent US9072729B2, “Method for treating fibrosis and cancer with imidazolium and imidazolinium compounds” (Agency for Science, Technology and Research, priority 2008, dated 2015).
